Data: patent US10697027B2, “Biological detection method for dioxins in serum, and diagnostic use therefor in metabolic syndrome and related conditions” (priority 2010, dated 2020)

What was measured:
[1] = system: HePa1c1c7 cell line expressing pCYP1A1-luc stably; assay: Response test with the transformed cell line expressing the recombinant reporter gene (luciferase assay); assay type: cell-based, mouse; conditions: for luciferase activity over the treatment time: treatment time 4, 8 (or 24) hours
Protocol: The cell line stably expressing pCYP1A1-luc constructed in Example <1-2> was distributed in 60 mm culture dish at the density of 1×10^5 cells, followed by culture for 48 hours. Upon completion of the culture, the medium was replaced with DMEM supplemented with 0.5% charcoal-stripped FBS but not supplemented with phenol red, and indole-3-carbinol was treated thereto at the concentrations of 0, 0.01, 0.1, 1, 10, and 100 μM for 4, 8, or 24 hours. Then, the cells were collected, followed by luciferase assay.
The cell line stably expressing pCYP1A1-luc constructed in Example <1-2> was distributed in 60 mm culture dish at the density of 2×10^5 cells, followed by culture for 24 hours. Upon completion of the culture, the medium was replaced with DMEM supplemented with 0.5% charcoal-stipped FBS but not supplemented with phenol red, and 2,3,7,8-tetrachlorodibenzo-p-dioxin (TCDD) was treated thereto at the concentrations of 0, 0.1, 1, 10, 100, and 1000 pM for 4, or 8 hours. Then, the cells were collected, followed by luciferase assay.

[2] = mouse treated with TCDD; cited from earlier work

Row | Structure (SMILES) | luciferase activity compared with control not treated with TCDD ([1]; 10~1000 pM, treated for 4 or 8 hours) | luciferase activity over the treatment time [1] | ATP synthesis [2] | ubiquinone (CoQ) in the liver [2] | luciferase activity compared with non-treated control group ([1]; 0.001~10 μM, treated for 4, 8 or 24 hours) | luciferase activity increase ([1]; concentration of 100 μM, treated for 4, 8 or 24 hours)
1 | Clc1cc2c(cc1Cl)Oc1cc(Cl)c(Cl)cc1O2 [TCDD, 2,3,7,8-tetrachlorodibenzo-p-dioxin] | significantly increased | increased over the treatment time, which was not so significant | suppressed | reduced | – | –
2 | OCc1c[nH]c2ccccc12 [indol-3-carbinol, indole-3-carbinol] | – | significant difference over the time was not detected | – | – | increased dose-dependently | at least 3 times
